Assay results reported in ChEMBL document CHEMBL1201862, “PubChem BioAssay data set” (2004).
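1) Cells in 96-well plates. 2) Compound, 48 h, 5 concentrations. 3) Linear interpolation between surrounding doses. 4) Unreached endpoint = highest concentration. GI50 marks 50% less growth.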 The source made the active and inactive calls. Cut-off read from the data, not from the text of the source: active = GI50 up to about 1.1 µM and inactive = higher.

Legend:
Assay in all cases: NCI anticancer screen, dose series, 48 h
786-0 = system: 786-0
A498 = system: A498
A549 = system: A549
ACHN = system: ACHN
CAKI-1 = system: CAKI-1
CCRF-CEM = system: CCRF-CEM
COLO 205 = system: COLO 205
DLD-1 = system: DLD-1
DMS-114 = system: DMS-114
DMS-273 = system: DMS-273
EKVX = system: EKVX
HCC 2998 = system: HCC 2998
HCT-116 = system: HCT-116
HCT-15 = system: HCT-15
HL-60 = system: HL-60
HOP-18 = system: HOP-18
HOP-62 = system: HOP-62
HOP-92 = system: HOP-92
HT-29 = system: HT-29
IGROV-1 = system: IGROV-1
K562 = system: K562
KM-20L2 = system: KM-20L2
KM12 = system: KM12
LOX IMVI = system: LOX IMVI
LXFL 529 = system: LXFL 529
M14 = system: M14
M19-MEL = system: M19-MEL
MOLT-4 = system: MOLT-4
Malme-3M = system: Malme-3M
NCI-H23 = system: NCI-H23
NCI-H460 = system: NCI-H460
OVCAR-3 = system: OVCAR-3
OVCAR-4 = system: OVCAR-4
OVCAR-5 = system: OVCAR-5
OVCAR-8 = system: OVCAR-8
RPMI-8226 = system: RPMI-8226
RXF 393 = system: RXF 393
RXF 631 = system: RXF 631
SF-268 = system: SF-268
SF-295 = system: SF-295
SF-539 = system: SF-539
SK-MEL-28 = system: SK-MEL-28
SK-MEL-2 = system: SK-MEL-2
SK-MEL-5 = system: SK-MEL-5
SK-OV-3 = system: SK-OV-3
SN12C = system: SN12C
SNB-19 = system: SNB-19
SNB-75 = system: SNB-75
SNB-78 = system: SNB-78
SR = system: SR
SW-620 = system: SW-620
TK-10 = system: TK-10
U-251 = system: U-251
UACC-257 = system: UACC-257
UACC-62 = system: UACC-62
UO-31 = system: UO-31
XF498 = system: XF498
NCI-H226 = system: NCI-H226
NCI-H522 = system: NCI-H522

SMILES: CC1(C)CC2CC(CC(C)(C)C2=O)C1=O
- GI50 (786-0): > 100 µM (inactive)
- GI50 (A498): > 100 µM (inactive)
- GI50 (A549): > 100 µM (inactive)
- GI50 (ACHN): > 100 µM (inactive)
- GI50 (CAKI-1): > 100 µM (inactive)
- GI50 (CCRF-CEM): > 100 µM (inactive)
- GI50 (COLO 205): > 100 µM (inactive)
- GI50 (DLD-1): > 100 µM (inactive)
- GI50 (DMS-114): > 100 µM (inactive)
- GI50 (DMS-273): > 100 µM (inactive)
- GI50 (EKVX): > 100 µM (inactive)
- GI50 (HCC 2998): > 100 µM (inactive)
- GI50 (HCT-116): > 100 µM (inactive)
- GI50 (HCT-15): > 100 µM
- GI50 (HL-60): > 100 µM (inactive)
- GI50 (HOP-18): > 100 µM (inactive)
- GI50 (HOP-62): > 100 µM (inactive)
- GI50 (HOP-92): > 100 µM (inactive)
- GI50 (HT-29): > 100 µM (inactive)
- GI50 (IGROV-1): > 100 µM (inactive)
- GI50 (K562): > 100 µM (inactive)
- GI50 (KM-20L2): > 100 µM (inactive)
- GI50 (KM12): > 100 µM (inactive)
- GI50 (LOX IMVI): > 100 µM (inactive)
- GI50 (LXFL 529): > 100 µM (inactive)
- GI50 (M14): > 100 µM (inactive)
- GI50 (M19-MEL): > 100 µM (inactive)
- GI50 (MOLT-4): > 100 µM (inactive)
- GI50 (Malme-3M): > 100 µM (inactive)
- GI50 (NCI-H23): > 100 µM (inactive)
- GI50 (NCI-H460): > 100 µM (inactive)
- GI50 (OVCAR-3): > 100 µM (inactive)
- GI50 (OVCAR-4): > 100 µM (inactive)
- GI50 (OVCAR-5): > 100 µM (inactive)
- GI50 (OVCAR-8): > 100 µM (inactive)
- GI50 (RPMI-8226): > 100 µM (inactive)
- GI50 (RXF 393): > 100 µM (inactive)
- GI50 (RXF 631): > 100 µM (inactive)
- GI50 (SF-268): > 100 µM (inactive)
- GI50 (SF-295): > 100 µM (inactive)
- GI50 (SF-539): > 100 µM (inactive)
- GI50 (SK-MEL-28): > 100 µM (inactive)
- GI50 (SK-MEL-2): > 100 µM (inactive)
- GI50 (SK-MEL-5): > 100 µM (inactive)
- GI50 (SK-OV-3): > 100 µM (inactive)
- GI50 (SN12C): > 100 µM (inactive)
- GI50 (SNB-19): > 100 µM (inactive)
- GI50 (SNB-75): > 100 µM (inactive)
- GI50 (SNB-78): > 100 µM (inactive)
- GI50 (SR): > 100 µM (inactive)
- GI50 (SW-620): > 100 µM (inactive)
- GI50 (TK-10): > 100 µM (inactive)
- GI50 (U-251): > 100 µM (inactive)
- GI50 (UACC-257): > 100 µM (inactive)
- GI50 (UACC-62): > 100 µM (inactive)
- GI50 (UO-31): > 100 µM (inactive)
- GI50 (XF498): > 100 µM (inactive)

SMILES: Cc1cc2c(=O)cc(-c3ccc(F)cc3)oc2c(C(=O)O)c1C
- GI50 (786-0): > 100 µM (inactive)
- GI50 (A549): > 100 µM (inactive)
- GI50 (ACHN): > 100 µM (inactive)
- GI50 (CAKI-1): > 100 µM (inactive)
- GI50 (CCRF-CEM): > 100 µM (inactive)
- GI50 (COLO 205): > 100 µM (inactive)
- GI50 (DLD-1): > 100 µM (inactive)
- GI50 (DMS-114): > 100 µM (inactive)
- GI50 (DMS-273): > 100 µM (inactive)
- GI50 (EKVX): > 100 µM (inactive)
- GI50 (HCT-116): > 100 µM (inactive)
- GI50 (HCT-15): > 100 µM
- GI50 (HOP-18): > 100 µM (inactive)
- GI50 (HT-29): > 100 µM (inactive)
- GI50 (IGROV-1): > 100 µM (inactive)
- GI50 (K562): > 100 µM (inactive)
- GI50 (KM-20L2): > 100 µM (inactive)
- GI50 (KM12): > 100 µM (inactive)
- GI50 (LOX IMVI): > 100 µM (inactive)
- GI50 (LXFL 529): > 100 µM (inactive)
- GI50 (M14): > 100 µM (inactive)
- GI50 (M19-MEL): > 100 µM (inactive)
- GI50 (MOLT-4): > 100 µM (inactive)
- GI50 (Malme-3M): > 100 µM (inactive)
- GI50 (NCI-H226): > 100 µM (inactive)
- GI50 (NCI-H23): > 100 µM (inactive)
- GI50 (NCI-H460): > 100 µM (inactive)
- GI50 (NCI-H522): > 100 µM (inactive)
- GI50 (OVCAR-3): > 100 µM (inactive)
- GI50 (OVCAR-4): > 100 µM (inactive)
- GI50 (OVCAR-5): > 100 µM (inactive)
- GI50 (OVCAR-8): > 100 µM (inactive)
- GI50 (RPMI-8226): > 100 µM (inactive)
- GI50 (RXF 393): > 100 µM (inactive)
- GI50 (RXF 631): > 100 µM (inactive)
- GI50 (SF-268): > 100 µM (inactive)
- GI50 (SF-295): > 100 µM (inactive)
- GI50 (SF-539): > 100 µM (inactive)
- GI50 (SK-MEL-28): > 100 µM (inactive)
- GI50 (SK-MEL-2): > 100 µM (inactive)
- GI50 (SK-MEL-5): > 100 µM (inactive)
- GI50 (SK-OV-3): > 100 µM (inactive)
- GI50 (SN12C): > 100 µM (inactive)
- GI50 (SNB-19): > 100 µM (inactive)
- GI50 (SNB-75): > 100 µM (inactive)
- GI50 (SNB-78): > 100 µM (inactive)
- GI50 (SW-620): > 100 µM (inactive)
- GI50 (TK-10): > 100 µM (inactive)
- GI50 (U-251): > 100 µM (inactive)
- GI50 (UACC-257): > 100 µM (inactive)
- GI50 (UACC-62): > 100 µM (inactive)
- GI50 (UO-31): > 100 µM (inactive)
- GI50 (XF498): > 100 µM (inactive)
